# Paper PMC7584476, “Safety and efficacy of BAY1436032 in IDH1-mutant AML: phase I study results” (Leukemia, 2020)
# System: subjects with mIDH1 advanced AML
# Experiment: Phase I study: safety and tolerability (TEAE, DLT, MTD, ECG)
# Assay type: in vivo
# Experimental: This study was an open-label, nonrandomized, multicenter phase I trial. Subjects were screened at 13 hospital sites in 2 countries (USA and Germany). The study was to consist of dose-escalation followed by dose-expansion. The MTD identified in dose-escalation was to be used in the dose-expansion. If MTD was not reached in dose-escalation, a dose for the expansion would be selected based on available PK, pharmacodynamic, safety, and efficacy data. BAY1436032 was administered twice-daily (BID) in continuous 28-day cycles. In dose-escalation, up to 9 evaluable subjects could be enrolled per cohort, with a minimum of 3 dose-limiting toxicity (DLT)-free evaluable subjects required prior to escalating to the next highest dose. Bayesian dose-DLT modeling was performed to help guide dosing decisions.
# DLTs were differentially defined for nonhematopoietic versus hematopoietic toxicities. Nonhematopoietic toxicities of ≥grade 3 occurring during the first cycle of treatment were to be considered DLTs with the following exceptions: (1) Alopecia and nausea controlled by medical management; (2) Tumor lysis syndrome if successfully managed clinically and resolved within 7 days without any end-organ damage; (3) Differentiation syndrome (DS) if successfully managed clinically and resolved within 7 days without any end-organ damage; (4) Asymptomatic ≥grade 3 electrolyte abnormalities not considered clinically significant by the investigator. […] For certain toxicities such as laboratory assessments without a clear clinical correlate, a discussion between the investigator and the sponsor determined whether the adverse event (AE) should be assessed as a DLT.
# DLTs identified during the first cycle of treatment were used to guide dose-escalation decisions and to determine the MTD, and if safety issues appeared in subsequent cycles they were also to be considered. Hydroxyurea was permitted during the first cycle if white blood cell (WBC) exceeded 20 × 10^9/L and was also permitted for treatment of DS.
# Safety and tolerability were evaluated by analysis of adverse events, physical examinations, vital signs, ECOG performance status, and various laboratory assessments. For safety monitoring, subjects were scheduled for clinic visits every week for the initial three cycles of treatment, after which time visits could be reduced to every-other-week with investigator and sponsor agreement. Cardiac function was assessed with triplicate 12-lead electrocardiograms (ECG) at screening, C1-D1, C1-D2, C1-D15, D1 of every subsequent cycle, and at treatment end. […] AEs are presented by the Medical Dictionary for Regulatory Activities (MedDRA) v21.1.
smiles,measurement,setting,value
C[C@H]1C[C@@H](n2c(Nc3ccc(OC(F)(F)F)cc3)nc3cc(CCC(=O)O)ccc32)CC(C)(C)C1 [BAY1436032],Related TEAE Decreased appetite Grade 1,"300 mg BID, n=7",1
same,Related TEAE Decreased appetite Grade 2,"300 mg BID, n=7",1
same,Related TEAE Diarrhea Grade 2,"300 mg BID, n=7",0
same,Related TEAE Differentiation syndrome Grade 2,"300 mg BID, n=7",0
same,Related TEAE Differentiation syndrome Grade 3,"300 mg BID, n=7",0
same,Related TEAE Dyspnea Grade 1,"300 mg BID, n=7",1
same,Related TEAE Dyspnea Grade 2,"300 mg BID, n=7",1
same,Related TEAE Fatigue Grade 1,"300 mg BID, n=7",0
same,Related TEAE Fatigue Grade 2,"300 mg BID, n=7",1
same,Related TEAE Fatigue Grade 3,"300 mg BID, n=7",0
same,Related TEAE Hypomagnesaemia Grade 1,"300 mg BID, n=7",1
same,Related TEAE Nausea Grade 1,"300 mg BID, n=7",1
same,Related TEAE Nausea Grade 2,"300 mg BID, n=7",1
same,Related TEAE Sinus tachycardia Grade 1,"300 mg BID, n=7",1
same,Related TEAE Vomiting Grade 1,"300 mg BID, n=7",2
same,TEAE Abdominal pain upper Grade 1,"300 mg BID, n=7",0
same,TEAE Abdominal pain upper Grade 2,"300 mg BID, n=7",0
same,TEAE Acute kidney injury Grade 1,"300 mg BID, n=7",1
same,TEAE Acute kidney injury Grade 2,"300 mg BID, n=7",1
same,TEAE Acute kidney injury Grade 3,"300 mg BID, n=7",0
same,TEAE Anaemia Grade 3,"300 mg BID, n=7",0
same,TEAE Anaemia Grade 4,"300 mg BID, n=7",1
same,TEAE Anxiety Grade 1,"300 mg BID, n=7",1
same,TEAE Anxiety Grade 2,"300 mg BID, n=7",0
same,TEAE Arthralgia Grade 1,"300 mg BID, n=7",0
same,TEAE Arthralgia Grade 2,"300 mg BID, n=7",0
same,TEAE Constipation Grade 1,"300 mg BID, n=7",0
same,TEAE Constipation Grade 2,"300 mg BID, n=7",1
same,TEAE Contusion Grade 1,"300 mg BID, n=7",1
same,TEAE Contusion Grade 2,"300 mg BID, n=7",0
same,TEAE Cough Grade 1,"300 mg BID, n=7",2
same,TEAE Cough Grade 2,"300 mg BID, n=7",1
same,TEAE Decreased appetite Grade 1,"300 mg BID, n=7",3
same,TEAE Decreased appetite Grade 2,"300 mg BID, n=7",1
same,TEAE Decreased appetite Grade 3,"300 mg BID, n=7",0
same,TEAE Diarrhea Grade 1,"300 mg BID, n=7",4
same,TEAE Diarrhea Grade 2,"300 mg BID, n=7",0
same,TEAE Dry skin Grade 1,"300 mg BID, n=7",2
same,TEAE Dyspnoea Grade 1,"300 mg BID, n=7",2
same,TEAE Dyspnoea Grade 2,"300 mg BID, n=7",1
same,TEAE Dyspnoea Grade 3,"300 mg BID, n=7",2
same,TEAE Epistaxis Grade 1,"300 mg BID, n=7",0
same,TEAE Epistaxis Grade 2,"300 mg BID, n=7",0
same,TEAE Epistaxis Grade 3,"300 mg BID, n=7",0
same,TEAE Fall Grade 1,"300 mg BID, n=7",0
same,TEAE Fatigue Grade 1,"300 mg BID, n=7",2
same,TEAE Fatigue Grade 2,"300 mg BID, n=7",1
same,TEAE Fatigue Grade 3,"300 mg BID, n=7",1
same,TEAE Febrile neutropenia Grade 3,"300 mg BID, n=7",2
same,TEAE General physical health deterioration Grade 3,"300 mg BID, n=7",0
same,TEAE General physical health deterioration Grade 5,"300 mg BID, n=7",0
same,TEAE Gingivitis Grade 1,"300 mg BID, n=7",2
same,TEAE Haematuria Grade 1,"300 mg BID, n=7",1
same,TEAE Haematuria Grade 2,"300 mg BID, n=7",0
same,TEAE Haematuria Grade 3,"300 mg BID, n=7",0
same,TEAE Headache Grade 1,"300 mg BID, n=7",1
same,TEAE Headache Grade 2,"300 mg BID, n=7",2
same,TEAE Headache Grade 3,"300 mg BID, n=7",0
same,TEAE Hyperkalaemia Grade 1,"300 mg BID, n=7",1
same,TEAE Hyperkalaemia Grade 4,"300 mg BID, n=7",0
same,TEAE Hypertension Grade 2,"300 mg BID, n=7",0
same,TEAE Hypertension Grade 3,"300 mg BID, n=7",0
same,TEAE Hyperuricaemia Grade 1,"300 mg BID, n=7",0
same,TEAE Hyperuricaemia Grade 3,"300 mg BID, n=7",0
same,TEAE Hypokalaemia Grade 1,"300 mg BID, n=7",2
same,TEAE Hypokalaemia Grade 2,"300 mg BID, n=7",0
same,TEAE Hypokalaemia Grade 3,"300 mg BID, n=7",1
same,TEAE Hyponatraemia Grade 1,"300 mg BID, n=7",2
same,TEAE Hyponatraemia Grade 3,"300 mg BID, n=7",0
same,TEAE Hypophosphataemia Grade 1,"300 mg BID, n=7",0
same,TEAE Hypophosphataemia Grade 2,"300 mg BID, n=7",1
same,TEAE Leukocytosis Grade 2,"300 mg BID, n=7",1
same,TEAE Leukocytosis Grade 3,"300 mg BID, n=7",1
same,TEAE Lung infection Grade 3,"300 mg BID, n=7",1
same,TEAE Lung infection Grade 5,"300 mg BID, n=7",1
same,TEAE Nausea Grade 1,"300 mg BID, n=7",1
same,TEAE Nausea Grade 2,"300 mg BID, n=7",1
same,TEAE Nausea Grade 3,"300 mg BID, n=7",0
same,TEAE Oedema peripheral Grade 1,"300 mg BID, n=7",3
same,TEAE Oedema peripheral Grade 3,"300 mg BID, n=7",1
same,TEAE Pain in extremity Grade 1,"300 mg BID, n=7",1
same,TEAE Pain in extremity Grade 2,"300 mg BID, n=7",0
same,TEAE Pneumonia Grade 1,"300 mg BID, n=7",0
same,TEAE Pneumonia Grade 2,"300 mg BID, n=7",1
same,TEAE Pneumonia Grade 3,"300 mg BID, n=7",1
same,TEAE Pneumonia fungal Grade 2,"300 mg BID, n=7",0
same,TEAE Pneumonia fungal Grade 3,"300 mg BID, n=7",0
same,TEAE Pneumonia fungal Grade 4,"300 mg BID, n=7",0
same,TEAE Productive cough Grade 1,"300 mg BID, n=7",0
same,TEAE Productive cough Grade 2,"300 mg BID, n=7",0
same,TEAE Pyrexia Grade 1,"300 mg BID, n=7",0
same,TEAE Pyrexia Grade 2,"300 mg BID, n=7",0
same,TEAE Pyrexia Grade 3,"300 mg BID, n=7",0
same,TEAE Rash Grade 1,"300 mg BID, n=7",0
same,TEAE Rash Grade 2,"300 mg BID, n=7",0
same,TEAE Sepsis Grade 4,"300 mg BID, n=7",2
same,TEAE Sepsis Grade 5,"300 mg BID, n=7",1
same,TEAE Sinus tachycardia Grade 1,"300 mg BID, n=7",2
same,TEAE Thrombocytopenia Grade 4,"300 mg BID, n=7",0
same,TEAE Vomiting Grade 1,"300 mg BID, n=7",3
same,TEAE Weight decreased Grade 1,"300 mg BID, n=7",2
same,TEAE Weight decreased Grade 2,"300 mg BID, n=7",0
same,TEAE Weight decreased Grade 3,"300 mg BID, n=7",0
same,Related TEAE Decreased appetite Grade 1,"600 mg BID, n=4",0
same,Related TEAE Decreased appetite Grade 2,"600 mg BID, n=4",0
same,Related TEAE Diarrhea Grade 2,"600 mg BID, n=4",0
same,Related TEAE Differentiation syndrome Grade 2,"600 mg BID, n=4",0
same,Related TEAE Differentiation syndrome Grade 3,"600 mg BID, n=4",0
same,Related TEAE Dyspnea Grade 1,"600 mg BID, n=4",0
same,Related TEAE Dyspnea Grade 2,"600 mg BID, n=4",0
same,Related TEAE Fatigue Grade 1,"600 mg BID, n=4",1
same,Related TEAE Fatigue Grade 2,"600 mg BID, n=4",0
same,Related TEAE Fatigue Grade 3,"600 mg BID, n=4",0
same,Related TEAE Hypomagnesaemia Grade 1,"600 mg BID, n=4",0
same,Related TEAE Nausea Grade 1,"600 mg BID, n=4",1
same,Related TEAE Nausea Grade 2,"600 mg BID, n=4",0
same,Related TEAE Sinus tachycardia Grade 1,"600 mg BID, n=4",0
same,Related TEAE Vomiting Grade 1,"600 mg BID, n=4",1
same,TEAE Abdominal pain upper Grade 1,"600 mg BID, n=4",0
same,TEAE Abdominal pain upper Grade 2,"600 mg BID, n=4",0
same,TEAE Acute kidney injury Grade 1,"600 mg BID, n=4",0
same,TEAE Acute kidney injury Grade 2,"600 mg BID, n=4",0
same,TEAE Acute kidney injury Grade 3,"600 mg BID, n=4",1
same,TEAE Anaemia Grade 3,"600 mg BID, n=4",1
same,TEAE Anaemia Grade 4,"600 mg BID, n=4",0
same,TEAE Anxiety Grade 1,"600 mg BID, n=4",0
same,TEAE Anxiety Grade 2,"600 mg BID, n=4",0
same,TEAE Arthralgia Grade 1,"600 mg BID, n=4",0
same,TEAE Arthralgia Grade 2,"600 mg BID, n=4",0
same,TEAE Constipation Grade 1,"600 mg BID, n=4",0
same,TEAE Constipation Grade 2,"600 mg BID, n=4",0
same,TEAE Contusion Grade 1,"600 mg BID, n=4",0
same,TEAE Contusion Grade 2,"600 mg BID, n=4",0
same,TEAE Cough Grade 1,"600 mg BID, n=4",1
same,TEAE Cough Grade 2,"600 mg BID, n=4",0
